Bridge positions count the residues as written; N and C are the ends. Square brackets hold non-standard residues; d marks the D form. Peptide text beside a SMILES is read from it. I, II: the chains in the order shown. Phe(3,4-Cl2) = N[C@@H](Cc1ccc(Cl)c(Cl)c1)C(=O)O; tBuAla = CC(C)(C)C[C@H](N)C(=O)O; hLeu = CC(C)CC[C@H](N)C(=O)O; Nle = CCCC[C@H](N)C(=O)O

This assay has as its target Frizzled-7 (Homo sapiens, UniProt O75084). Briefly: Binding affinity to recombinant human Frizzled-7 (Gln33 to Leu185 residues)/human IgG1 chimeric protein expressed in CHO cells assessed as […] by SPR assay. (In general: In SPR one partner is held on a chip, and binding of the other changes the refractive index at the surface.)
In the case of `CC[C@H](C)[C@H](NC(=O)[C@H](Cc1cnc[nH]1)NC(=O)[C@H](CSSCC[C@H](NC(=O)[C@H](Cc1c[nH]c2ccccc12)NC(=O)[C@H](CC(C)C)NC(=O)[C@H](CCC(=O)O)NC(=O)[C@H](CC(C)C)NC(=O)[C@H](CC(=O)O)NC(=O)[C@H](CC(=O)O)NC(=O)[C@@H](NC(C)=O)[C@@H](C)O)C(=O)N[C@@H](Cc1cnc[nH]1)C(=O)N[C@H](C(=O)N[C@@H](CCSC)C(=O)N[C@@H](Cc1ccc(O)cc1)C(N)=O)[C@@H](C)CC)NC(=O)[C@H](Cc1c[nH]c2ccccc12)NC(=O)[C@H](CC(C)C)NC(=O)[C@H](CCC(=O)O)NC(=O)[C@H](CC(C)C)NC(=O)[C@H](CC(=O)O)NC(=O)[C@H](CC(=O)O)NC(=O)[C@@H](NC(C)=O)[C@H](C)O)C(=O)N[C@@H](CCSC)C(=O)N[C@@H](Cc1ccc(O)cc1)C(N)=O`, the Kd stood at 6.3 nM. The figure for `CSCC[C@H](NC(=O)[C@@H](NC(=O)[C@H](Cc1cnc[nH]1)NC(=O)[C@H](CSSC[C@H](NC(=O)[C@H](Cc1c[nH]c2ccccc12)NC(=O)[C@H](Cc1ccccc1)NC(=O)[C@H](CCC(=O)O)NC(=O)[C@H](CC(C)(C)C)NC(=O)[C@H](CC(=O)O)NC(=O)[C@H](CC(=O)O)NC(=O)[C@H](CO)NC(C)=O)C(=O)N[C@@H](Cc1cnc[nH]1)C(=O)N[C@H](C(=O)N[C@@H](CCSC)C(=O)N[C@@H](Cc1ccc(O)cc1)C(N)=O)C(C)C)NC(=O)[C@H](Cc1c[nH]c2ccccc12)NC(=O)[C@H](Cc1ccccc1)NC(=O)[C@H](CCC(=O)O)NC(=O)[C@H](CC(C)(C)C)NC(=O)[C@H](CC(=O)O)NC(=O)[C@H](CC(=O)O)NC(=O)[C@H](CO)NC(C)=O)C(C)C)C(=O)N[C@@H](Cc1ccc(O)cc1)C(N)=O` (I: Ac-SDD[tBuAla]EFWCHVMY-NH2 / II: Ac-SDD[tBuAla]EFWCHVMY-NH2; disulfide I:8-II:8) is 0.95 nM; for `CC[C@H](C)[C@H](NC(=O)[C@H](Cc1cnc[nH]1)NC(=O)[C@H](CSSC[C@H](NC(=O)[C@H](Cc1c[nH]c2ccccc12)NC(=O)[C@H](Cc1ccccc1)NC(=O)[C@H](CCC(=O)O)NC(=O)[C@H](CC(C)C)NC(=O)[C@H](CC(=O)O)NC(=O)[C@H](CC(=O)O)NC(=O)[C@H](CO)NC(C)=O)C(=O)N[C@@H](Cc1cnc[nH]1)C(=O)N[C@H](C(=O)N[C@@H](CCSC)C(=O)N[C@@H](Cc1ccc(O)cc1)C(N)=O)[C@@H](C)CC)NC(=O)[C@H](Cc1c[nH]c2ccccc12)NC(=O)[C@H](Cc1ccccc1)NC(=O)[C@H](CCC(=O)O)NC(=O)[C@H](CC(C)C)NC(=O)[C@H](CC(=O)O)NC(=O)[C@H](CC(=O)O)NC(=O)[C@H](CO)NC(C)=O)C(=O)N[C@@H](CCSC)C(=O)N[C@@H](Cc1ccc(O)cc1)C(N)=O` (I: Ac-SDDLEFWCHIMY-NH2 / II: Ac-SDDLEFWCHIMY-NH2; disulfide I:8-II:8) it is 0.96 nM.

`CSCC[C@H](NC(=O)[C@@H](NC(=O)[C@H](Cc1cnc[nH]1)NC(=O)[C@H](CSSC[C@H](NC(=O)[C@H](Cc1c[nH]c2ccccc12)NC(=O)[C@H](Cc1ccccc1)NC(=O)[C@H](CCC(=O)O)NC(=O)[C@H](CCC(C)C)NC(=O)[C@H](CC(=O)O)NC(=O)[C@H](CC(=O)O)NC(=O)[C@H](CO)NC(C)=O)C(=O)N[C@@H](Cc1cnc[nH]1)C(=O)N[C@H](C(=O)N[C@@H](CCSC)C(=O)N[C@@H](Cc1ccc(O)cc1)C(N)=O)C(C)C)NC(=O)[C@H](Cc1c[nH]c2ccccc12)NC(=O)[C@H](Cc1ccccc1)NC(=O)[C@H](CCC(=O)O)NC(=O)[C@H](CCC(C)C)NC(=O)[C@H](CC(=O)O)NC(=O)[C@H](CC(=O)O)NC(=O)[C@H](CO)NC(C)=O)C(C)C)C(=O)N[C@@H](Cc1ccc(O)cc1)C(N)=O` (I: Ac-SDD[hLeu]EFWCHVMY-NH2 / II: Ac-SDD[hLeu]EFWCHVMY-NH2; disulfide I:8-II:8): the Kd was determined as 124 nM. The figure for `CSCC[C@H](NC(=O)[C@@H](NC(=O)[C@H](Cc1cnc[nH]1)NC(=O)[C@H](CSSC[C@H](NC(=O)[C@H](Cc1c[nH]c2ccccc12)NC(=O)[C@H](Cc1ccccc1)NC(=O)[C@H](CCC(=O)O)NC(=O)[C@H](CC(C)C)NC(=O)[C@H](CC(=O)O)NC(=O)[C@H](CC(=O)O)NC(=O)[C@H](CO)NC(C)=O)C(=O)N[C@@H](Cc1cnc[nH]1)C(=O)N[C@H](C(=O)N[C@@H](CCSC)C(=O)N[C@@H](Cc1ccc(Cl)c(Cl)c1)C(N)=O)C(C)C)NC(=O)[C@H](Cc1c[nH]c2ccccc12)NC(=O)[C@H](Cc1ccccc1)NC(=O)[C@H](CCC(=O)O)NC(=O)[C@H](CC(C)C)NC(=O)[C@H](CC(=O)O)NC(=O)[C@H](CC(=O)O)NC(=O)[C@H](CO)NC(C)=O)C(C)C)C(=O)N[C@@H](Cc1ccc(Cl)c(Cl)c1)C(N)=O` (I: Ac-SDDLEFWCHVM[Phe(3,4-Cl2)]-NH2 / II: Ac-SDDLEFWCHVM[Phe(3,4-Cl2)]-NH2; disulfide I:8-II:8) is 0.9 nM; for `CCCC[C@H](NC(=O)[C@H](CC(=O)O)NC(=O)[C@H](CC(=O)O)NC(=O)[C@H](CO)NC(C)=O)C(=O)N[C@@H](CCC(=O)O)C(=O)N[C@@H](Cc1ccccc1)C(=O)N[C@@H](Cc1c[nH]c2ccccc12)C(=O)N[C@@H](CSSC[C@H](NC(=O)[C@H](Cc1c[nH]c2ccccc12)NC(=O)[C@H](Cc1ccccc1)NC(=O)[C@H](CCC(=O)O)NC(=O)[C@H](CCCC)NC(=O)[C@H](CC(=O)O)NC(=O)[C@H](CC(=O)O)NC(=O)[C@H](CO)NC(C)=O)C(=O)N[C@@H](Cc1cnc[nH]1)C(=O)N[C@H](C(=O)N[C@@H](CCSC)C(=O)N[C@@H](Cc1ccc(O)cc1)C(N)=O)C(C)C)C(=O)N[C@@H](Cc1cnc[nH]1)C(=O)N[C@H](C(=O)N[C@@H](CCSC)C(=O)N[C@@H](Cc1ccc(O)cc1)C(N)=O)C(C)C` (I: Ac-SDD[Nle]EFWCHVMY-NH2 / II: Ac-SDD[Nle]EFWCHVMY-NH2; disulfide I:8-II:8) it is 23 nM; for `CSCC[C@H](NC(=O)[C@@H](CC1CCC1)NC(=O)[C@H](Cc1cnc[nH]1)NC(=O)[C@H](CSSC[C@H](NC(=O)[C@H](Cc1c[nH]c2ccccc12)NC(=O)[C@H](Cc1ccccc1)NC(=O)[C@H](CCC(=O)O)NC(=O)[C@H](CC(C)C)NC(=O)[C@H](CC(=O)O)NC(=O)[C@H](CC(=O)O)NC(=O)[C@H](CO)NC(C)=O)C(=O)N[C@@H](Cc1cnc[nH]1)C(=O)N[C@H](CC1CCC1)C(=O)N[C@@H](CCSC)C(=O)N[C@@H](Cc1ccc(O)cc1)C(N)=O)NC(=O)[C@H](Cc1c[nH]c2ccccc12)NC(=O)[C@H](Cc1ccccc1)NC(=O)[C@H](CCC(=O)O)NC(=O)[C@H](CC(C)C)NC(=O)[C@H](CC(=O)O)NC(=O)[C@H](CC(=O)O)NC(=O)[C@H](CO)NC(C)=O)C(=O)N[C@@H](Cc1ccc(O)cc1)C(N)=O` it is 2.1 nM.

The term Kd denotes the free concentration of one partner at which half of the binding sites on the other are occupied at equilibrium, for simple one-to-one binding.

(Values after BindingDB's records for doi:10.1021/acs.jmedchem.9b00500 (2019).)
